Legend:
primate = conditions: Sub-acute repeat dose toxicity; macaque; Oral; Gavage/Intubation; dose end: 35 day; group: systemic; systemic / clinical chemistry / bilirubin / total bilirubin
dog [1] = conditions: Subchronic oral toxicity in nonrodent, beagle, Gavage/Intubation, dose end: 1 month, group: systemic
dog [2] = conditions: Chronic toxicity, beagle, Oral, Gavage/Intubation, dose end: 26 week, group: systemic
rat [3] = conditions: Fertility (Segment I), sprague dawley, Oral, Gavage/Intubation, dose end: 63 day, group: parental
rat [4] = conditions: Fertility (Segment I), sprague dawley, Oral, Gavage/Intubation, dose end: 6 GD
rat [5] = conditions: Sub-acute repeat dose toxicity; sprague dawley; Oral; Gavage/Intubation; dose end: 1 month; group: systemic; systemic / clinical chemistry / protein / protein + systemic / clinical chemistry / alanine aminotransferase (alt/sgpt) / alanine …
rat [6] = conditions: Chronic toxicity; sprague dawley; Oral; Gavage/Intubation; dose end: 26 week; group: systemic; systemic / clinical chemistry / alanine aminotransferase (alt/sgpt) / alanine aminotransferase (alt/sgpt) + systemic / clinical chemistry / …
rat [7] = conditions: Combined chronic toxicity/carcinogenicity; fischer; Oral; Gavage/Intubation; dose end: 2 year; group: systemic; systemic / pathology microscopic / kidney / cyst + systemic / pathology microscopic / kidney / hyperplasia + systemic / pathology …
mouse [8] = conditions: Subchronic oral toxicity in rodents, b6c3f1, Gavage/Intubation, dose end: 13 week, group: systemic, systemic / pathology microscopic / kidney / fibrosis + systemic / pathology microscopic / kidney / inflammation + systemic / pathology …
mouse [9] = conditions: Carcinogenicity, b6c3f1, Oral, Gavage/Intubation, dose end: 2 year, group: systemic
rat [10] = conditions: Subchronic oral toxicity in rodents, fischer, Gavage/Intubation, dose end: 13 week, group: systemic
mouse [11] = conditions: Sub-acute repeat dose toxicity; b6c3f1; Oral; Gavage/Intubation; dose end: 14 day; group: systemic; systemic / in life observation / clinical signs / distended abdomens + systemic / in life observation / clinical signs / fur (altered …
mouse [12] = conditions: Carcinogenicity, cd1, Oral, Feed, dose end: 80 week, group: systemic
dog [13] = conditions: Chronic toxicity, beagle, Oral, Capsule, dose end: 52 week, group: systemic
rabbit = conditions: Prenatal developmental toxicity study, other, Oral, Gavage/Intubation, dose end: 19 GD
[14] = systemic / in life observation / body weight / body weight + systemic / organ weight / thymus / relative to body weight
[15] = systemic / in life observation / body weight / body weight + systemic / organ weight / thymus / relative to body weight + systemic / …
[16] = systemic / organ weight / adrenal gland / absolute + systemic / organ weight / adrenal gland / relative to body weight
[17] = systemic / organ weight / adrenal gland / absolute + systemic / organ weight / adrenal gland / relative to body weight + systemic / clinical…
[18] = systemic / in life observation / body weight / body weight + systemic / in life observation / body weight / body weight gain + systemic / in…
[19] = systemic / in life observation / body weight / body weight gain
[20] = group: maternal, reproductive / reproductive performance / estrous cycle / abnormal
[21] = group: parental, systemic / in life observation / body weight / body weight gain + systemic / in life observation / clinical signs / salivation + systemic / …
[22] = systemic / pathology microscopic / lung / hyperplasia
[23] = systemic / pathology microscopic / lung / hyperplasia + systemic / pathology microscopic / liver / adenoma + systemic / pathology …
[24] = systemic / in life observation / clinical signs / motor activity + systemic / in life observation / body weight / body weight + systemic / …
[25] = systemic / in life observation / clinical signs / salivation
[26] = systemic / in life observation / body weight / body weight gain + systemic / in life observation / body weight / body weight + systemic / …
[27] = systemic / in life observation / body weight / body weight gain + systemic / in life observation / body weight / body weight + systemic / in…
[28] = group: developmental, developmental / developmental malformation / bone / [other]
[29] = group: maternal, reproductive / reproductive performance / resorptions / resorptions + systemic / in life observation / clinical signs / defecation (diarrhea…

Cc1cc2c(cc1C(F)(F)F)N(C(=O)Nc1ccc(Oc3cccnc3C)nc1)CC2.Cl
LEL (primate): 1000 mg/kg/day | LOAEL (primate): > 1000 mg/kg/day | NEL (primate): 300 mg/kg/day | NOAEL (primate): ≥ 1000 mg/kg/day | LEL (dog [1]; [14]): 2 mg/kg/day | NEL (dog [1]; [14]): < 2 mg/kg/day | LOAEL (dog [1]; [15]): > 1000 mg/kg/day | NOAEL (dog [1]; [15]): ≥ 1000 mg/kg/day | LEL (dog [2]; [16]): 2 mg/kg/day | NEL (dog [2]; [16]): < 2 mg/kg/day | LOAEL (dog [2]; [17]): > 300 mg/kg/day | NOAEL (dog [2]; [17]): ≥ 300 mg/kg/day | LOAEL (rat [3]; [18]): > 200 mg/kg/day | NEL (rat [3]; [18]): 2 mg/kg/day | NOAEL (rat [3]; [18]): ≥ 200 mg/kg/day | LEL (rat [3]; [19]): 20 mg/kg/day | LEL (rat [4]; [20]): 20 mg/kg/day | LOAEL (rat [4]; [20]): > 20 mg/kg/day | NEL (rat [4]; [20]): 2 mg/kg/day | NOAEL (rat [4]; [20]): ≥ 20 mg/kg/day | LEL (rat [4]; [21]): 2 mg/kg/day | LOAEL (rat [4]; [21]): > 20 mg/kg/day | NEL (rat [4]; [21]): 0.2 mg/kg/day | NOAEL (rat [4]; [21]): ≥ 20 mg/kg/day | LEL (rat [5]): 2 mg/kg/day | LOAEL (rat [5]): > 200 mg/kg/day | NEL (rat [5]): < 2 mg/kg/day | NOAEL (rat [5]): ≥ 200 mg/kg/day | LEL (rat [6]): 2 mg/kg/day | LOAEL (rat [6]): > 100 mg/kg/day | NEL (rat [6]): < 2 mg/kg/day | NOAEL (rat [6]): ≥ 100 mg/kg/day

c1ccc2occc2c1 [2,3-Benzofuran]
LEL (rat [7]): 30 mg/kg/day | LOAEL (rat [7]): 30 mg/kg/day | NEL (rat [7]): < 30 mg/kg/day | NOAEL (rat [7]): < 30 mg/kg/day | LEL (mouse [8]): 250 mg/kg/day | LOAEL (mouse [8]): 250 mg/kg/day | NEL (mouse [8]): 125 mg/kg/day | NOAEL (mouse [8]): 125 mg/kg/day | LOAEL (mouse [9]; [22]): 60 mg/kg/day | NOAEL (mouse [9]; [22]): < 60 mg/kg/day | LEL (mouse [9]; [23]): 60 mg/kg/day | NEL (mouse [9]; [23]): < 60 mg/kg/day | LOAEL (rat [10]; [24]): 125 mg/kg/day | NOAEL (rat [10]; [24]): 62.5 mg/kg/day | LEL (rat [10]; [25]): 31.2 mg/kg/day | NEL (rat [10]; [25]): < 31.2 mg/kg/day

O=C(O)c1ccccc1 [Benzoic acid]
LEL (mouse [11]): 642 mg/kg/day | LOAEL (mouse [11]): > 642 mg/kg/day | NEL (mouse [11]): 321 mg/kg/day | NOAEL (mouse [11]): ≥ 642 mg/kg/day

COS(=O)(=O)[O-].Cn1c(-c2ccccc2)cc(-c2ccccc2)[n+]1C [Difenzoquat metilsulfate]
LEL (mouse [12]; [19]): 69.4 mg/kg/day | LOAEL (mouse [12]; [19]): 69.4 mg/kg/day | NEL (mouse [12]; [26]): 26.9 mg/kg/day | NOAEL (mouse [12]; [26]): 26.9 mg/kg/day | LOAEL (dog [13]; [19]): 30 mg/kg/day | LEL (dog [13]; [27]): 30 mg/kg/day | NEL (dog [13]; [27]): 20 mg/kg/day | NOAEL (dog [13]; [27]): 20 mg/kg/day | LEL (rabbit; [28]): 250 mg/kg/day | LOAEL (rabbit; [28]): 250 mg/kg/day | NEL (rabbit; [28]): 100 mg/kg/day | NOAEL (rabbit; [28]): 100 mg/kg/day | LEL (rabbit; [29]): 250 mg/kg/day | LOAEL (rabbit; [29]): 250 mg/kg/day | NEL (rabbit; [29]): 100 mg/kg/day | NOAEL (rabbit; [29]): 100 mg/kg/day

Reference: EPA's ToxRefDB 2
